From the NIST ThermoML archive (doi:10.1021/acs.jced.9b00752)

Experiment: mn = molality of the nth substance listed, in mol/kg
Details: 100 kPa, Liquid, Vibrating tube method

N[C@@H](Cc1c[nH]cn1)C(=O)O [L-histidine] + O
mass density [kg/m3]
Details | 278.65 K | 279.15 K | 279.65 K | 280.15 K | 280.65 K | 281.15 K | 281.65 K | 282.15 K | 282.65 K | 283.15 K
m1 = 0.0078 | 1000.43 | 1000.42 | 1000.4 | 1000.38 | 1000.36 | 1000.33 | 1000.29 | 1000.26 | 1000.22 | 1000.18
m1 = 0.0176 | 1001 | 1000.98 | 1000.97 | 1000.94 | 1000.92 | 1000.89 | 1000.85 | 1000.82 | 1000.78 | 1000.73
m1 = 0.0269 | 1001.6 | 1001.58 | 1001.56 | 1001.53 | 1001.51 | 1001.48 | 1001.44 | 1001.41 | 1001.36 | 1001.32
m1 = 0.048 | 1002.82 | 1002.8 | 1002.78 | 1002.75 | 1002.73 | 1002.69 | 1002.65 | 1002.62 | 1002.57 | 1002.53
m1 = 0.0636 | 1003.84 | 1003.82 | 1003.79 | 1003.76 | 1003.73 | 1003.7 | 1003.66 | 1003.62 | 1003.58 | 1003.53
m1 = 0.0856 | 1005.07 | 1005.05 | 1005.02 | 1004.99 | 1004.96 | 1004.92 | 1004.88 | 1004.84 | 1004.79 | 1004.74
m1 = 0.0982 | 1005.82 | 1005.8 | 1005.77 | 1005.74 | 1005.71 | 1005.67 | 1005.63 | 1005.59 | 1005.54 | 1005.49
m1 = 0.115 | 1006.7 | 1006.68 | 1006.65 | 1006.62 | 1006.58 | 1006.54 | 1006.5 | 1006.46 | 1006.41 | 1006.36
m1 = 0.1268 | 1007.49 | 1007.46 | 1007.43 | 1007.39 | 1007.36 | 1007.32 | 1007.27 | 1007.23 | 1007.18 | 1007.13
m1 = 0.138 | 1008.16 | 1008.13 | 1008.1 | 1008.06 | 1008.03 | 1007.99 | 1007.94 | 1007.89 | 1007.84 | 1007.79
m1 = 0.1586 | 1009.47 | 1009.44 | 1009.41 | 1009.37 | 1009.33 | 1009.28 | 1009.24 | 1009.19 | 1009.13 | 1009.08
